Assay results reported in ChEMBL document CHEMBL3301451, “MMV Malaria Box gametocyte functional viability assay screening”.

How the values were obtained:
Type in all cases: functional
Design in all cases: concentration or dose not given beside the values
[1] = tested on: Plasmodium berghei; assay: MMV: P. berghei-infected blood was withdrawn from mice by cardiac pucture before being immediately added to ookinete culture medium containing test compounds. 26 hr later, GFP-positive ookinetes were identified and counted by automated microscopy. All compounds were tested in 4 independent experiments and data presented here is the mean.
[2] = tested on: Plasmodium falciparum; assay: (§1) MMV: P. falciparum NF54 functionally mature Stage V gametocytes were incubated for 24 hr in the presence of the test compounds. Gamete formation was then triggered by addition of 2uM xantheurenic acid and temperature decrease to ~20C. Male gamete exflagellation was recorded and analysed by automated microscopy after 20 min. All compounds were tested in 4 independent experiments and data presented here is the mean.
[3] = tested on: Plasmodium falciparum; assay: as §1, with “Female” for “Male”, “formation” for “exflagellation”, “24 hr later” for “and analysed”, “detection of surface labelling of female gametes with a Cy3-conjugated antibody reactive to Pfs25.” for “after 20 min.”; conditions: NF54, 24 h

| Structure (SMILES) | inhibition [1] [%] | inhibition [2] [%] | inhibition [3] [%] |
| --- | --- | --- | --- |
| COc1ccc(C2Sc3ccccc3N=C3C2=C(O)c2ccccc23)cc1 (centres undefined) | 68.07 | 32.2 | 0.279 |
| Cc1cc(N(C)C)nc(Nc2ccc(NC(=O)Nc3ccccc3)cc2)n1 | -9.07 | 33.6 | -35.4 |
| CCOc1ccc(Nc2ccnc3cc(Cl)ccc23)cc1 | -13.78 | -4.26 | -52.9 |
| COc1ccc(C=C2SC(Nc3ccc(F)cc3)=NC2=O)c(OC)c1 | 49.11 | 42.9 | -24.5 |
| COc1ccc(-c2cc3c(SCC(=O)Nc4cc(C(F)(F)F)ccc4Cl)nccn3n2)cc1 | -25.97 | 23.5 | -16.8 |
| O=C(NC1CCCC1)c1ccc(N2CCC(NCc3cccc(C(F)(F)F)c3)CC2)cc1 | -10.11 | -12 | -14 |
| COc1ccc(CCN2CCC(CN(C)Cc3cnn(-c4ccccc4)c3)CC2)cc1 | -8.146 | -4.67 | -27.5 |
| c1ccc2c(NCCc3c[nH]c4ccccc34)c3ccccc3nc2c1 | -6.399 | 5.59 | 2.57 |
| c1ccc(CNc2nc(Nc3ccccc3)nc3ccccc23)cc1 | -4.491 | -50.6 | -29.2 |
| CCCCNCC(O)(c1ccc(Cl)cc1)c1ccc(Cl)cc1 | 10.56 | 5.76 | -11 |
| Cc1ccc(-c2cc3nc4c(c(O)n3n2)CCCC4)cc1 | 12.06 | 22.3 | -14.6 |
| COCCNCC(O)Cn1c2ccc(Cl)cc2c2cc(Cl)ccc21 (centres undefined) | -6.812 | -2.59 | -7.62 |
| CCCc1c(C)nc2ccc(Br)cc2c1O | 47.59 | -14.5 | -18.5 |
| CCOc1ccccc1CN1CCc2nc3cc(C(C)(C)C)nn3c(O)c2C1 | 19.57 | 3.23 | 5.87 |
| CCOC(=O)C1CCN(C(=O)CN2C(=O)c3ccccc3C2c2c[nH]c3ccccc23)CC1 (centres undefined) | -16.49 | 32.6 | -26 |
| CN(C)c1ccc(-c2nc3cc(N)ccc3[nH]2)cc1 | -2.982 | 12.2 | -7.9 |
| COc1ccc(C(=O)NC(c2ccccc2Cl)c2cc(Cl)c3cccnc3c2O)cc1 (centres undefined) | -9.997 | 2.11 | -6.93 |
| CCc1ccc(CNCC(O)c2ccccc2)cc1.Cl (centres undefined) | -12.46 | -40.9 | -20.9 |
| CC(C)(C)CC(C)(C)NCC(O)COc1ccc(Cl)cc1Cl (centres undefined) | -15.58 | -10.7 | -45.2 |
| COc1ccc(CN2CCCC(C(=O)c3ccc(C(F)(F)F)cc3)C2)c(O)c1 (centres undefined) | -17.45 | 36.1 | 6.89 |
| OC(Cn1nnc2ccccc21)Cn1c2ccc(Br)cc2c2cc(Br)ccc21 (centres undefined) | -0.4033 | 33.4 | -23.3 |
| CCCCN(CCCC)S(=O)(=O)c1ccc(NC(=O)c2ccco2)cc1 | -10.62 | 30.9 | -25.1 |

| Structure (SMILES) | inhibition [1] [%] | inhibition [2] [%] | inhibition [3] [%] |
| --- | --- | --- | --- |
| CCOc1cccc(C(=O)Nc2ccc(-c3nc4ccccc4[nH]3)cc2)c1 | -10.12 | 32.1 | -29.6 |
| COc1cc(OC)c(N(C)C(=O)c2cc3c(s2)-c2ccccc2S(=O)(=O)C3)cc1Cl | -16.25 | 7.68 | -14.9 |
| CCC1(C)CC(CCNCc2ccccc2O)(c2ccc(C)cc2)CCO1 (centres undefined) | -38.74 | -6.89 | 7.59 |
| COc1ccc(C(=O)Nc2ccc(Cl)cc2C(=O)Nc2ccncc2)cc1 | -4.155 | 14.4 | -19.7 |
| CN(C)c1ccc(N2C(N)=NC(N)=NC2(C)C)cc1 | -13.4 | 71.6 | -61.8 |
| CCC(c1ccccc1)c1nn2c(-c3cccs3)nnc2s1 (centres undefined) | -15.76 | 1.43 | -48.4 |
| COc1ccc(C(=O)C(CCC(CNC(C)(C)C)C(=O)c2ccc(OC)cc2)CNC(C)(C)C)cc1 (centres undefined) | -12.62 | 16.3 | 4.72 |
| Cc1ccc2c(C)nc(Nc3nc(C)cc(-c4ccccc4)n3)nc2c1 | -0.3138 | -11.5 | -39.7 |
| COc1ccc2c(c1OC)C(=O)N1c3ccccc3N=C(c3ccc(C)cc3)CC21 (centres undefined) | -1.051 | 8.91 | -8.58 |
| COc1ccc(NC(=O)C2c3ccccc3C(=O)N(CC(C)C)C2c2cccs2)cc1 (centres undefined) | -10.74 | 22.3 | 13.9 |
| COc1ccc(Nc2nc(NCc3ccccc3)c3ccccc3n2)cc1 | -12.84 | -30.2 | -14.7 |
| c1ccc(Cn2c(N=Nc3c(Nc4ccccc4)ccc4ccccc34)nc3ccccc32)cc1 | 7.124 | -0.509 | 7.17 |
| CCOc1cc(Cl)c(C(C)NC(=O)c2ccccc2)cc1OCC (centres undefined) | -7.982 | 32.8 | -37 |
| CC(C)(C)CC(C)(C)NCC(O)COc1ccc2c(c1)CCC2.Cl (centres undefined) | -7.207 | -54.4 | -4.34 |
| COc1cccc(Nc2nc(N)c3ccccc3n2)c1.Cl | -11.42 | -35.2 | -36.4 |
| COc1cccc(-c2nn(C)c3sc(C(=O)NCCN4CCN(c5ccccc5F)CC4)cc23)c1 | 2.067 | 14.1 | -2.79 |
| CC(=O)Nc1nnc(SCc2c(C)cc(C(C)(C)C)cc2C)s1 | 4.957 | 17.4 | 5.39 |
| CCCCNc1nc(NC(C)(C)C)nc(NC(C)(C)C)n1 | 83.46 | -9.24 | -29.6 |
| Cc1cccc(-n2ncc3c(O)nc(-n4nc(C)cc4NC(=O)c4cc5ccccc5o4)nc32)c1 | -5.778 | 34.4 | -18.6 |
| Clc1ccc2c(N3CCCC3)ccnc2c1 | -9.994 | 33.7 | 5.78 |
| CSC1=NC(=Nc2c(C)cccc2C)C2(CCC(C(C)(C)C)CC2)N1c1ccc(Cl)cc1 (centres undefined) | 10.1 | 15.7 | -11.8 |
| CCc1ccc(Nc2cc(C)c3ccc(O)cc3n2)cc1.Cl | -20.95 | 15.2 | -14 |

| Structure (SMILES) | inhibition [1] [%] | inhibition [2] [%] | inhibition [3] [%] |
| --- | --- | --- | --- |
| CCCc1c(CC)c(=N)c2ccccc2n1C | -31.4 | -39.2 | -32.4 |
| Cc1cc(C)c2nc(N3CCC(C(=O)NCCCN4CCC(N5CCCCC5)CC4)CC3)sc2c1 | -9.223 | 8.94 | 21.7 |
| CC(=O)c1sc(NC(=O)Nc2ccc(C)cc2C)nc1C | -22.74 | -39.7 | -20.1 |
| O=C(Nc1ccccc1O)c1ccc(-c2ccc(Cl)cc2Cl)o1 | -6.243 | 18.9 | -20.6 |
| COc1cccc(O)c1CN1CCC2(CCCN(Cc3ccc(F)cc3)C2)C1 (centres undefined) | 0.1358 | -5.07 | -15.6 |
| CN1c2ccccc2N(C)C1c1ccc2c(c1)OCO2 | 3.083 | 8.56 | -33.5 |
| COc1cc(CNCCc2ccc(Cl)cc2)cc(OC)c1O | -10.96 | -14.1 | -40.5 |
| Cc1cc(Nc2cccc(F)c2)nc(NCc2ccccc2)n1 | 4.533 | 20.4 | -45.8 |
| COc1cc2c3cc1Oc1c(OC)c(OC)cc4c1C(Cc1ccc(O)c(c1)Oc1ccc(cc1)CC3N(C)CC2)N(C)CC4.Cl (centres undefined) | -16.79 | -64.1 | -37.2 |
| Br.CCn1c2c(c(=N)c3c1CCC3)CCCC2 | -17.86 | -42.4 | -26.2 |
| O=C(NC(c1ccccc1)c1ccc2cccnc2c1O)c1ccccc1 (centres undefined) | 6.162 | 5.16 | -22.7 |
| COc1ccc(C(C)=O)cc1N1C(=O)C2C(C1=O)C1(c3ccccc3)C(=O)C2(c2ccccc2)C(c2ccc(C)cc2)=C1c1ccc(C)cc1 (centres undefined) | -19.71 | 21.8 | -9.11 |
| Oc1ccc(Cl)cc1CNc1nc2ccccc2[nH]1 | -5.247 | 53.3 | -26.8 |
| COc1cccc(C(=O)NC(c2ccc(C)cc2)c2cc(Cl)c3cccnc3c2O)c1 (centres undefined) | -20.64 | 19.5 | 0.843 |
| CCC(C)NCC(O)(c1ccc(Cl)cc1)c1ccc(Cl)cc1 (centres undefined) | 2.874 | 25.7 | -7.82 |
| Cc1ccc(-c2nc3ccccc3o2)cc1NCc1cc(Cc2ccccc2)ccc1O | -14.9 | 13.9 | -8.19 |
| Cc1ccc2nc(C)cc(Nc3cccc(C(F)(F)F)c3)c2c1.Cl | -4.574 | -27.5 | -16.2 |
| Cc1ccc(Nc2nc(-c3ccccn3)cs2)cc1 | 12.18 | 16.3 | 0.787 |
| COc1cc(C(=O)ON=C(N)Cc2cccc3ccccc23)cc(OC)c1OC | -15.26 | -12.8 | -26.8 |
| CCN1CCN(Cc2ccc(NC(=O)c3cc4ccc5cccnc5c4[nH]3)cc2)CC1 | -14.48 | 15.9 | -5.39 |
| O=C1CC(O)(C(F)(F)C(F)(F)F)Oc2ccccc21 (centres undefined) | -0.9117 | – | -15.2 |
